Key:
Hepatotoxicity [1] = test: Literature-mined compound from Fourches et al multi-species drug-induced liver injury (DILI) dataset, effect in non-rodents
Hepatotoxicity [2] = test: Literature-mined compound from Fourches et al multi-species drug-induced liver injury (DILI) dataset, effect in rodents; conditions: rodentia
Hepatotoxicity [3] = test: Literature-mined compound from Fourches et al multi-species drug-induced liver injury (DILI) dataset, effect in humans; conditions: human

Question: With `CCC(=O)[O-].[Na+]` [SODIUM PROPIONATE] as the compound, how does the Hepatotoxicity (Hepatotoxicity [1]) read?
Answer: The Hepatotoxicity was “no drug-induced liver injury reported”.

Question: And the Hepatotoxicity (Hepatotoxicity [2])?
Answer: The Hepatotoxicity was “drug-induced liver injury reported”.

Question: What about the Hepatotoxicity (Hepatotoxicity [3]) of the same compound?
Answer: Its Hepatotoxicity is “no drug-induced liver injury reported”.

Question: Which Hepatotoxicity (Hepatotoxicity [1]) does the source give for `C#C[C@]1(OC(C)=O)CC[C@H]2[C@@H]3CCC4=CC(=O)CC[C@@H]4[C@H]3CC[C@@]21C` [NORETHINDRONE ACETATE] here?
Answer: Its Hepatotoxicity is “drug-induced liver injury reported”.

Question: What about the Hepatotoxicity (Hepatotoxicity [2]) of the same compound?
Answer: The Hepatotoxicity was “drug-induced liver injury reported”.

Question: What about the Hepatotoxicity (Hepatotoxicity [3]) of the same compound?
Answer: The Hepatotoxicity was “no drug-induced liver injury reported”.

Question: `Cc1nnc(SCC2=C(C(=O)O)N3C(=O)[C@@H](NC(=O)Cn4cnnn4)[C@H]3SC2)s1` [CEFAZOLIN] was tested. Which Hepatotoxicity (Hepatotoxicity [1]) did it give?
Answer: The Hepatotoxicity was “no drug-induced liver injury reported”.

Question: What about the Hepatotoxicity (Hepatotoxicity [2]) of the same compound?
Answer: The Hepatotoxicity was “drug-induced liver injury reported”.

Question: What about the Hepatotoxicity (Hepatotoxicity [3]) of the same compound?
Answer: The Hepatotoxicity was “drug-induced liver injury reported”.

Question: What does the source list for `Oc1cc(Cl)ccc1Oc1ccc(Cl)cc1Cl` [TRICLOSAN]?
Answer: Hepatotoxicity (Hepatotoxicity [1]): no drug-induced liver injury reported; Hepatotoxicity (Hepatotoxicity [2]): drug-induced liver injury reported; Hepatotoxicity (Hepatotoxicity [3]): no drug-induced liver injury reported

Question: What does the source list for SPIRAMYCIN?
Answer: Hepatotoxicity (Hepatotoxicity [1]): no drug-induced liver injury reported; Hepatotoxicity (Hepatotoxicity [2]): no drug-induced liver injury reported; Hepatotoxicity (Hepatotoxicity [3]): drug-induced liver injury reported

Question: With `CC(C)OC(=O)C(C)(C)Oc1ccc(C(=O)c2ccc(Cl)cc2)cc1` [FENOFIBRATE] as the compound, how does the Hepatotoxicity (Hepatotoxicity [1]) read?
Answer: Its Hepatotoxicity is “no drug-induced liver injury reported”.

Question: What about the Hepatotoxicity (Hepatotoxicity [2]) of the same compound?
Answer: The Hepatotoxicity was “drug-induced liver injury reported”.

Question: What about the Hepatotoxicity (Hepatotoxicity [3]) of the same compound?
Answer: The Hepatotoxicity was “drug-induced liver injury reported”.

Question: What does the source list for `CC1=C(C(=O)O)N2C(=O)[C@@H](NC(=O)[C@H](N)c3ccc(O)cc3)[C@H]2SC1` [CEFADROXIL]?
Answer: Hepatotoxicity (Hepatotoxicity [1]): no drug-induced liver injury reported; Hepatotoxicity (Hepatotoxicity [2]): no drug-induced liver injury reported; Hepatotoxicity (Hepatotoxicity [3]): drug-induced liver injury reported

Question: `FC(F)OC(Cl)C(F)(F)F` (stereo unspecified) [ISOFLURANE] was tested. Which Hepatotoxicity (Hepatotoxicity [1]) did it give?
Answer: The Hepatotoxicity was “drug-induced liver injury reported”.

Question: What about the Hepatotoxicity (Hepatotoxicity [2]) of the same compound?
Answer: The Hepatotoxicity was “drug-induced liver injury reported”.

Question: What about the Hepatotoxicity (Hepatotoxicity [3]) of the same compound?
Answer: Its Hepatotoxicity is “drug-induced liver injury reported”.

Question: Which results are given for `Cc1cc(C)nc(NS(=O)(=O)c2ccc(N)cc2)n1` [SULFAMETHAZINE]?
Answer: Hepatotoxicity (Hepatotoxicity [1]): no drug-induced liver injury reported; Hepatotoxicity (Hepatotoxicity [2]): drug-induced liver injury reported; Hepatotoxicity (Hepatotoxicity [3]): drug-induced liver injury reported

Question: What does the source list for `CCCCC[C@H](O)/C=C/[C@@H]1[C@@H](C/C=C\CCCC(=O)O)[C@@H](O)C[C@H]1O` [DINOPROST]?
Answer: Hepatotoxicity (Hepatotoxicity [1]): drug-induced liver injury reported; Hepatotoxicity (Hepatotoxicity [2]): drug-induced liver injury reported; Hepatotoxicity (Hepatotoxicity [3]): drug-induced liver injury reported

Question: With `CCC1(c2ccccc2)CCC(=O)NC1=O` (stereo unspecified) [GLUTETHIMIDE] as the compound, how does the Hepatotoxicity (Hepatotoxicity [1]) read?
Answer: Its Hepatotoxicity is “no drug-induced liver injury reported”.

Question: What about the Hepatotoxicity (Hepatotoxicity [2]) of the same compound?
Answer: Its Hepatotoxicity is “no drug-induced liver injury reported”.

Question: And the Hepatotoxicity (Hepatotoxicity [3])?
Answer: The Hepatotoxicity was “drug-induced liver injury reported”.

Question: Which results are given for `CC(C)C(Br)C(=O)NC(N)=O` (stereo unspecified) [BROMISOVALUM]?
Answer: Hepatotoxicity (Hepatotoxicity [1]): no drug-induced liver injury reported; Hepatotoxicity (Hepatotoxicity [2]): drug-induced liver injury reported; Hepatotoxicity (Hepatotoxicity [3]): drug-induced liver injury reported

Question: `Cc1ccc(=O)n(-c2ccccc2)c1` [PIRFENIDONE] was tested. Which Hepatotoxicity (Hepatotoxicity [1]) did it give?
Answer: Its Hepatotoxicity is “drug-induced liver injury reported”.

Question: What about the Hepatotoxicity (Hepatotoxicity [2]) of the same compound?
Answer: The Hepatotoxicity was “drug-induced liver injury reported”.

Question: And the Hepatotoxicity (Hepatotoxicity [3])?
Answer: Its Hepatotoxicity is “no drug-induced liver injury reported”.

Question: Which results are given for `C#CC1(O)CC[C@H]2[C@@H]3CCC4=CC(=O)CC[C@@H]4[C@H]3CC[C@@]21CC` (stereo partly specified) [NORGESTREL]?
Answer: Hepatotoxicity (Hepatotoxicity [1]; Liver): no drug-induced liver injury reported; Hepatotoxicity (Hepatotoxicity [2]; Liver): drug-induced liver injury reported; Hepatotoxicity (Hepatotoxicity [3]; Liver): drug-induced liver injury reported

Question: With `COc1cc(C)c(/C=C/C(C)=C/C=C/C(C)=C/C(=O)O)c(C)c1C` [ACITRETIN] as the compound, how does the Hepatotoxicity (Hepatotoxicity [1]) read?
Answer: The Hepatotoxicity was “no drug-induced liver injury reported”.

Question: What about the Hepatotoxicity (Hepatotoxicity [2]) of the same compound?
Answer: The Hepatotoxicity was “drug-induced liver injury reported”.

Question: And the Hepatotoxicity (Hepatotoxicity [3])?
Answer: The Hepatotoxicity was “drug-induced liver injury reported”.

Question: For `COC(c1ccccc1)(c1ccccc1)[C@H](Oc1nc(C)cc(C)n1)C(=O)O` [AMBRISENTAN], which Hepatotoxicity (Hepatotoxicity [1]) is on record?
Answer: Its Hepatotoxicity is “drug-induced liver injury reported”.

Question: What about the Hepatotoxicity (Hepatotoxicity [2]) of the same compound?
Answer: Its Hepatotoxicity is “no drug-induced liver injury reported”.

Question: And the Hepatotoxicity (Hepatotoxicity [3])?
Answer: Its Hepatotoxicity is “no drug-induced liver injury reported”.

Question: `N=C(N)NCCC[C@H](N)C(=O)O` [ARGININE] was tested. Which Hepatotoxicity (Hepatotoxicity [1]) did it give?
Answer: Its Hepatotoxicity is “drug-induced liver injury reported”.

Question: And the Hepatotoxicity (Hepatotoxicity [2])?
Answer: Its Hepatotoxicity is “drug-induced liver injury reported”.

Question: What about the Hepatotoxicity (Hepatotoxicity [3]) of the same compound?
Answer: The Hepatotoxicity was “drug-induced liver injury reported”.

Question: Which Hepatotoxicity (Hepatotoxicity [1]) does the source give for `Cc1cc(-c2ccc(/N=N/c3ccc4c(S(=O)(=O)[O-])cc(S(=O)(=O)[O-])c(N)c4c3O)c(C)c2)ccc1/N=N/c1ccc2c(S(=O)(=O)[O-])cc(S(=O)(=O)[O-])c(N)c2c1O.[Na+].[Na+].[Na+].[Na+]` [EVANS BLUE] here?
Answer: The Hepatotoxicity was “no drug-induced liver injury reported”.

Question: What about the Hepatotoxicity (Hepatotoxicity [2]) of the same compound?
Answer: The Hepatotoxicity was “drug-induced liver injury reported”.

Question: What about the Hepatotoxicity (Hepatotoxicity [3]) of the same compound?
Answer: Its Hepatotoxicity is “no drug-induced liver injury reported”.

Question: Which results are given for `NCCc1ccc(O)c(O)c1` [DOPAMINE]?
Answer: Hepatotoxicity (Hepatotoxicity [1]; Liver): drug-induced liver injury reported; Hepatotoxicity (Hepatotoxicity [2]; Liver): drug-induced liver injury reported; Hepatotoxicity (Hepatotoxicity [3]; Liver): drug-induced liver injury reported

Question: `CO[C@@]1(NC(=O)C(C(=O)O)c2ccc(O)cc2)C(=O)N2C(C(=O)O)=C(CSc3nnnn3C)CO[C@@H]21` (stereo partly specified) [MOXALACTAM] was tested. Which Hepatotoxicity (Hepatotoxicity [1]) did it give?
Answer: Its Hepatotoxicity is “no drug-induced liver injury reported”.

Question: And the Hepatotoxicity (Hepatotoxicity [2])?
Answer: The Hepatotoxicity was “no drug-induced liver injury reported”.

Question: And the Hepatotoxicity (Hepatotoxicity [3])?
Answer: The Hepatotoxicity was “drug-induced liver injury reported”.

Question: How did the Hepatotoxicity (Hepatotoxicity [1]) turn out when `O=C([O-])c1c(Cl)c(Cl)c(Cl)c(Cl)c1-c1c2cc(I)c(=O)c(I)c-2oc2c(I)c([O-])c(I)cc12.[Na+].[Na+]` [ROSE BENGAL SODIUM] was run?
Answer: The Hepatotoxicity was “no drug-induced liver injury reported”.

Question: What about the Hepatotoxicity (Hepatotoxicity [2]) of the same compound?
Answer: The Hepatotoxicity was “drug-induced liver injury reported”.

Question: And the Hepatotoxicity (Hepatotoxicity [3])?
Answer: Its Hepatotoxicity is “no drug-induced liver injury reported”.

Question: With `C#C[C@]1(O)CC[C@H]2[C@@H]3CCc4cc(OC)ccc4[C@H]3CC[C@@]21C` [MESTRANOL] as the compound, how does the Hepatotoxicity (Hepatotoxicity [1]) read?
Answer: Its Hepatotoxicity is “drug-induced liver injury reported”.

Question: What about the Hepatotoxicity (Hepatotoxicity [2]) of the same compound?
Answer: The Hepatotoxicity was “drug-induced liver injury reported”.

Question: And the Hepatotoxicity (Hepatotoxicity [3])?
Answer: The Hepatotoxicity was “drug-induced liver injury reported”.

Question: With `N#Cc1cc(NC(=O)C(=O)O)c(Cl)c(NC(=O)C(=O)O)c1.NC(CO)(CO)CO` as the compound, how does the Hepatotoxicity (Hepatotoxicity [1]) read?
Answer: Its Hepatotoxicity is “no drug-induced liver injury reported”.

Question: And the Hepatotoxicity (Hepatotoxicity [2])?
Answer: Its Hepatotoxicity is “drug-induced liver injury reported”.

Question: And the Hepatotoxicity (Hepatotoxicity [3])?
Answer: Its Hepatotoxicity is “no drug-induced liver injury reported”.

Question: What does the source list for `CNC[C@H](O)[C@@H](O)[C@H](O)[C@H](O)CO` [MEGLUMINE]?
Answer: Hepatotoxicity (Hepatotoxicity [1]): no drug-induced liver injury reported; Hepatotoxicity (Hepatotoxicity [2]): no drug-induced liver injury reported; Hepatotoxicity (Hepatotoxicity [3]): drug-induced liver injury reported

Question: `O=C1CN(/N=C/c2ccc(-c3ccc([N+](=O)[O-])cc3)o2)C(=O)[N-]1.[Na+]` [DANTROLENE SODIUM] was tested. Which Hepatotoxicity (Hepatotoxicity [1]) did it give?
Answer: Its Hepatotoxicity is “no drug-induced liver injury reported”.

Question: What about the Hepatotoxicity (Hepatotoxicity [2]) of the same compound?
Answer: Its Hepatotoxicity is “drug-induced liver injury reported”.

Question: And the Hepatotoxicity (Hepatotoxicity [3])?
Answer: The Hepatotoxicity was “no drug-induced liver injury reported”.

Question: How did the Hepatotoxicity (Hepatotoxicity [1]) turn out when `CCOC(=O)C(C)(C)Oc1ccc(Cl)cc1` [CLOFIBRATE] was run?
Answer: Its Hepatotoxicity is “drug-induced liver injury reported”.

Question: What about the Hepatotoxicity (Hepatotoxicity [2]) of the same compound?
Answer: The Hepatotoxicity was “drug-induced liver injury reported”.

Question: What about the Hepatotoxicity (Hepatotoxicity [3]) of the same compound?
Answer: Its Hepatotoxicity is “drug-induced liver injury reported”.

Question: `O=C1CN(/N=C/c2ccc([N+](=O)[O-])o2)C(=O)N1CO` [NIFURTOINOL] was tested. Which Hepatotoxicity (Hepatotoxicity [1]) did it give?
Answer: The Hepatotoxicity was “no drug-induced liver injury reported”.

Question: What about the Hepatotoxicity (Hepatotoxicity [2]) of the same compound?
Answer: Its Hepatotoxicity is “no drug-induced liver injury reported”.

Question: And the Hepatotoxicity (Hepatotoxicity [3])?
Answer: Its Hepatotoxicity is “drug-induced liver injury reported”.

Reference: ChEMBL document CHEMBL1697731, “Cheminformatics analysis of assertions mined from literature that describe drug-induced liver injury in different species” (Chem Res Toxicol, 2010)
